Measured values reported in the supplement of paper PMC11451515.

Test system: NOMO1
Assay: cell viability relative to DMSO control; higher = less cytotoxic
Details: 48 h
How it was run: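 Before seeding, each leukemia line was adapted for at least four passages in each medium. NOMO1 or SEM cells (500 cells/well) and P12-Ichikawa cells (1000 cells/well) went into 1536-well plates at 5 μl, then received library compounds in DMSO by pin dosing across 11 threefold concentrations, 47 μM to 0.79 nM. Readout was CellTiter-Glo One luminescence after 48 h at 37°C, and viability is given as a per-plate percentage of DMSO wells, with cell-free wells as background.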

[1] = HPLM + 10% dialyzed FBS, 0.000781 µM
[2] = HPLM + 10% dialyzed FBS, 0.00234 µM
[3] = HPLM + 10% dialyzed FBS, 0.00702 µM
[4] = HPLM + 10% dialyzed FBS, 0.0211 µM
[5] = HPLM + 10% dialyzed FBS, 0.0632 µM
[6] = HPLM + 10% dialyzed FBS, 0.19 µM
[7] = HPLM + 10% dialyzed FBS, 0.569 µM
[8] = HPLM + 10% dialyzed FBS, 1.71 µM
[9] = HPLM + 10% dialyzed FBS, 5.12 µM
[10] = HPLM + 10% dialyzed FBS, 15.4 µM
[11] = HPLM + 10% dialyzed FBS, 46.1 µM
[12] = RPMI 5 mM glucose + 10% FBS, 0.000781 µM
[13] = RPMI 5 mM glucose + 10% FBS, 0.00234 µM
[14] = RPMI 5 mM glucose + 10% FBS, 0.00702 µM
[15] = RPMI 5 mM glucose + 10% FBS, 0.0211 µM
[16] = RPMI 5 mM glucose + 10% FBS, 0.0632 µM
[17] = RPMI 5 mM glucose + 10% FBS, 0.19 µM
[18] = RPMI 5 mM glucose + 10% FBS, 0.569 µM
[19] = RPMI 5 mM glucose + 10% FBS, 1.71 µM
[20] = RPMI 5 mM glucose + 10% FBS, 5.12 µM
[21] = RPMI 5 mM glucose + 10% FBS, 15.4 µM
[22] = RPMI 5 mM glucose + 10% FBS, 46.1 µM
[23] = RPMI 5 mM glucose + 10% dialyzed FBS, 0.000781 µM
[24] = RPMI 5 mM glucose + 10% dialyzed FBS, 0.00234 µM
[25] = RPMI 5 mM glucose + 10% dialyzed FBS, 0.00702 µM
[26] = RPMI 5 mM glucose + 10% dialyzed FBS, 0.0211 µM
[27] = RPMI 5 mM glucose + 10% dialyzed FBS, 0.0632 µM
[28] = RPMI 5 mM glucose + 10% dialyzed FBS, 0.19 µM
[29] = RPMI 5 mM glucose + 10% dialyzed FBS, 0.569 µM
[30] = RPMI 5 mM glucose + 10% dialyzed FBS, 1.71 µM
[31] = RPMI 5 mM glucose + 10% dialyzed FBS, 5.12 µM
[32] = RPMI 5 mM glucose + 10% dialyzed FBS, 15.4 µM
[33] = RPMI 5 mM glucose + 10% dialyzed FBS, 46.1 µM

| Structure (SMILES) | cell viability [1] | cell viability [2] | cell viability [3] | cell viability [4] | cell viability [5] | cell viability [6] | cell viability [7] | cell viability [8] | cell viability [9] | cell viability [10] | cell viability [11] | cell viability [12] | cell viability [13] | cell viability [14] | cell viability [15] | cell viability [16] | cell viability [17] | cell viability [18] | cell viability [19] | cell viability [20] | cell viability [21] | cell viability [22] | cell viability [23] | cell viability [24] | cell viability [25] | cell viability [26] | cell viability [27] | cell viability [28] | cell viability [29] | cell viability [30] | cell viability [31] | cell viability [32] | cell viability [33] |
| --- | --- | --- | --- | --- | --- | --- | --- | --- | --- | --- | --- | --- | --- | --- | --- | --- | --- | --- | --- | --- | --- | --- | --- | --- | --- | --- | --- | --- | --- | --- | --- | --- | --- |
| CC(C)[C@]12O[C@H]1[C@@H]3O[C@@]34[C@@]5(C)CC\C6=C(COC6=O)/[C@@H]5C[C@@H]7O[C@]47[C@@H]2O | 118% | 7.83% | 7.37% | 6.84% | 8.16% | 7.58% | 7.57% | 6.99% | 6.9% | 3.84% | 2.95% | 107% | 6.29% | 7.04% | 6.27% | 7.93% | 7.51% | 6.66% | 6.58% | 5% | 4.13% | 1.89% | 106% | 5.9% | 5.75% | 5.32% | 6.01% | 6.39% | 5.39% | 5.08% | 4.8% | 3.96% | 2.22% |
| c1cc2c(cc1[C@H]1OC[C@H]3[C@@H]1CO[C@@H]3c1ccc3c(c1)OCO3)OCO2 | 115% | 120% | 135% | 112% | 134% | 143% | 139% | 138% | 118% | 131% | 124% | 113% | 122% | 129% | 130% | 146% | 138% | 139% | 125% | 119% | 136% | 130% | 119% | 127% | 123% | 130% | 139% | 137% | 125% | 164% | 117% | 129% | 137% |
| Cc1cccc(-c2[nH]c(C(C)(C)C)nc2-c2ccc3nccnc3c2)n1 | 113% | 135% | 110% | 117% | 111% | 133% | 123% | 128% | 112% | 114% | 47% | 133% | 121% | 117% | 124% | 123% | 98.2% | 124% | 106% | 106% | 114% | 96.6% | 119% | 112% | 122% | 108% | 113% | 119% | 120% | 118% | 112% | 98.2% | 51.4% |
| Cc1cc(/C=c2/sc3nc4ccccc4n3c2=O)c(C)n1-c1ccccc1 | 117% | 113% | 128% | 117% | 132% | 120% | 130% | 119% | 128% | 113% | 123% | 111% | 128% | 115% | 127% | 125% | 126% | 105% | 111% | 119% | 109% | 104% | 121% | 127% | 115% | 137% | 126% | 127% | 121% | 127% | 126% | 133% | 121% |
| CN(CC(=O)N(Cc1ccc(C2CCCCC2)cc1)c1ccc(C(=O)O)c(O)c1)[S+](=O)([O-])c1c(F)c(F)c(F)c(F)c1F | 101% | 109% | 104% | 101% | 117% | 107% | 101% | 102% | 95.1% | 83.5% | 31.7% | 92.8% | 82.5% | 88.4% | 84.3% | 88.5% | 88.6% | 86.9% | 87.7% | 83.9% | 83.4% | 63% | 74.1% | 95.2% | 103% | 94.1% | 93.8% | 110% | 95.4% | 95.3% | 95.6% | 86.6% | 51.8% |
| Cn1cnc(N)c2ncnc1-2 | 111% | 130% | 108% | 117% | 139% | 92.4% | 139% | 80.3% | 63.5% | 11.5% | 6.59% | 99.7% | 113% | 117% | 119% | 131% | 111% | 118% | 117% | 94.7% | 18.5% | 9.02% | 102% | 124% | 118% | 130% | 135% | 113% | 120% | 118% | 79.7% | 19.3% | 11.9% |
| C#CCC(Cc1cnc2nc(N)nc(N)c2n1)c1ccc(C(=O)N[C@@H](CCC(=O)O)C(=O)O)cc1 (stereo not given in full) | 124% | 114% | 130% | 128% | 93.6% | 52% | 45.8% | 49.4% | 45.1% | 54.7% | 49.7% | 127% | 122% | 122% | 123% | 114% | 97.7% | 73.9% | 77.1% | 78.4% | 72.4% | 74.9% |  |  |  |  |  |  |  |  |  |  |  |
